Where “and” joins values, the source holds several entries; their conditions need not be identical. Identical values can stand only once.
How the values were obtained:
[1] = n-Octanol/PBS distribution coefficient (log D); assay type: physicochemical; details: radiolabeled ligand, 50 MBq/nmol, PBS pH 7.4
Description: The radioligand (0.5 MBq; 10 pmol, 25 μL) was then added to a reagent tube containing 1475 μL of PBS pH 7.4 and 1500 μL of n-octanol. The vials were vortexed vigorously followed by a centrifugation step for phase separation.
Determination of n-Octanol/PBS Distribution Coefficients (Log D Values). The distribution coefficients (log D values) of the ^64Cu-labeled radioligands (50 MBq/nmol) were determined by a shake-flask method using liquid-liquid extraction followed by phase separation as previously reported. Three experiments were performed with five replicates for each radioligand. Statistical significance of the data (p<0.05) was evaluated using an unpaired t-test (GraphPad Prism software, version 7).
Determination of n-Octanol/PBS Distribution Coefficients (Log D Values). […] A sample of the radioligands was mixed with phosphate-buffered saline (PBS) and n-octanol followed by vigorous vortexing. […] Three experiments were performed with five replicates for each compound.

[2] = test system: PSMA-positive PC-3 PIP cells; assay: Cell uptake and internalization in PSMA-positive PC-3 PIP cells; assay type: cell-based
[3] = test system: PC-3 PIP/flu tumor-bearing mice; assay: PET/CT imaging of PC-3 PIP/flu tumor-bearing mice; assay type: in vivo; details: 16 h after injection
Description: PET/CT Imaging Studies. PET/CT experiments were performed at 1 h, 4 h and 24 h after injection of the radioligands (5 MBq/l nmol). Mice were injected into a lateral tail vein with the respective radioligand (5 MBq, 1 nmol, 100 μL) diluted in saline containing 0.05% BSA. PET/CT scans were performed using a small-animal PET/CT scanner (G8, Perkin Elmer, Massachusetts, U.S.) as previously reported. The PET scans lasted for 10 min and were followed by a CT scan of 1.5 min. During the in vivo scans, the mice were anesthetized with a mixture of isoflurane and oxygen. Reconstruction of acquired data was performed using the software of the provider of the G8 scanner. All images were prepared using VivoQuant post-processing software (version 3.0, inviCRO Imaging Services and Software, Boston USA). The images were prepared by cutting 2% of the lower scale to make the tumors, liver and kidneys best visible.

human plasma proteins = assay: Ultrafiltration assay, binding to human plasma proteins; details: different dilutions of human plasma
Description: Therefore, the compounds were labeled with ^177Lu at a specific activity of 50 MBq/nmol and incubated in human plasma samples or PBS at room temperature. The free and plasma-bound fractions were separated using a centrifree ultrafiltration device (4104 centrifugal filter units [Millipore]; 30000 Da nominal molecular weight limit, methylcellulose micropartition membranes). The incubated solution was loaded to the ultrafiltration device and centrifuged at 2500 rpm for 40 min at 20° C. Samples from the filtrate were taken an analyzed for radioactivity in a gamma-counter. The amount of plasma-bound compound was calculated as the fraction of radioactivity measured in the filtrate relative to the corresponding loading solution (set to 100%).
Determination of Albumin-binding Properties. The binding of the radioligands to human plasma proteins was determined by an ultrafiltration assay. […] Three independent experiments were performed in duplicates with both radioligands and the data was fitted to a semi-logarithmic plot (non-linear regression, one-site, specific binding) to obtain the half maximum binding (B50) in GraphPad Prism software (version 7).
The ^177Lu-labeled PSMA ligands (50 MBq/nmol) were diluted in mouse plasma (Rockland, USA) and human plasma (Stiftung Blutspende SRK Aargau-Solothurn, Switzerland), respectively, and incubated for 15 min at room temperature. In addition, the radioligands were diluted in PBS (buffer solution without proteins) as a control experiment. Aliquots of the solutions were loaded onto an ultrafiltration device and centrifuged. The filtered activity was measured with a γ-counter and used for calculating the plasma protein-bound activity (retained on the filter membrane) as the percentage of total added activity. […] Statistical analysis (one-way ANOVA with Bonferroni's multiple comparison post-test) was performed using GraphPad Prism software, version 7. A p-value of <0.05 was considered statistically significant.

[4] = test system: PC-3 PIP/flu tumor-bearing mice; assay: Biodistribution studies in PC-3 PIP/flu tumor-bearing mice; details: for Tu-to-muscle / Tumor-to-blood / Tumor-to-kidney / Tumor-to-liver: PC-3 PIP tumor
PC-3 PIP tumor = assay: Therapy study in PC-3 PIP tumor-bearing mice; assay type: in vivo; details: for TGDI2 / TGDI5: control = 1
Excerpt: Mice of Groups B and D received 2 MBq of the radioligand (1 nmol/mouse), whereas mice of Groups C and E received 5 MBq of the radioligand (1 nmol/mouse). The mice were monitored by measuring body weights and the tumor size every other day over 12 weeks. Mice were euthanized when pre-defined endpoint criteria were reached, or when the study was terminated at Day 84. The relative body weight (RBW) was defined as [BWx/BW0], where BWx is the body weight in gram at a given day x and BW0 the body weight in gram at day 0. The tumor dimension was determined by measuring the longest tumor axis (L) and its perpendicular axis (W) with a digital caliper. The tumor volume (V) was calculated according to the equation [V=0.5*(L*W2)]. The relative tumor volume (RTV) was defined as [TVx/TV0], where TVx is the tumor volume in mm3 at a given day x and TV0 the tumor volume in mm3 at Day 0.
The efficacy of the radionuclide therapy was expressed as the tumor growth delay (TGDx), which was calculated as the time required for the tumor volume to increase x-fold over the initial volume at the Day 0. The tumor growth delay index [TGDIx=TGDx(T)/TGDx(C)] was calculated as the TGDx ratio of treated mice (T) over control mice (C) for a 2-fold (x=2, TGD2) and 5-fold (x=5, TGD5) increase of the initial tumor volume. As a measure to identify undesired side effects, body weights were compared at the day when the first control mouse had to be euthanized. After euthanasia, kidneys, liver and the brain were collected and weighed. The organ ratios (kidney-to-brain and liver-to-brain) were calculated using the organ masses obtained at the day of euthanasia.
The data was analyzed for significance as indicated in the result part using a one-way ANOVA with Tukey's multiple comparison post-test using GraphPad Prism software (version 7). A value of p<0.05 was considered statistically significant. Survival analysis was performed with Kaplan-Meier curves and a log-rank tests (Mantel Cox).

mouse plasma proteins = assay: Ultrafiltration assay, binding to mouse plasma proteins; assay type: in vitro ADME
Description: Filter Assay. […] In addition, the radioligands were diluted in PBS (buffer solution without proteins) as a control experiment. Aliquots of the solutions were loaded onto an ultrafiltration device and centrifuged. The filtered activity was measured with a γ-counter and used for calculating the plasma protein-bound activity (retained on the filter membrane) as the percentage of total added activity. […] Statistical analysis (one-way ANOVA with Bonferroni's multiple comparison post-test) was performed using GraphPad Prism software, version 7. A p-value of <0.05 was considered statistically significant.

[5] = test system: PSMA-negative PC-3 flu cells; assay: Cell uptake in PSMA-negative PC-3 flu cells; assay type: cell-based
Description: Cells were grown in RPMI cell culture medium supplemented with 10% fetal calf serum, L-glutamine, antibiotics and puromycin (2 μg/mL) at 37° C. and 5% CO2 (standard conditions). Routine cell culture was performed twice a week using PBS/EDTA (2 mM) for washing the cells and trypsin for detachment of the cells. The cells were seeded in 12-well plates (˜3×10^5 cells in 2 mL RPMI medium/well) allowing adhesion and growth overnight at standard conditions. The supernatant was removed and the cells washed with PBS pH 7.4 prior to the addition of RPMI medium without supplements (975 μL/well). […] After incubation, the cells were washed three times with ice-cold PBS and the total uptake of the radioligands was determined (PSMA-bound fraction on the surface and internalized fraction). The fraction of internalized radioligand was evaluated in cells washed with ice-cold PBS, followed by a 10 min incubation with stripping buffer (0.05 M glycine stripping buffer in 100 mM NaCl, pH 2.8) and an additional washing step with ice-cold PBS. […] After homogenization of the cell suspensions, the protein concentration was determined for each sample using a Micro BCA Protein Assay kit (Pierce, Therma Scientific). The results were expressed as percentage of total added radioactivity per […]. […]

[6] = Stability of radioligands over time by RP-HPLC; assay type: physicochemical
Description: Quality control of ^64Cu-labeled PSMA ligands (250 MBq in 120 μL; 50 MBq/nmol) was determined immediately after preparation (t=0 h) using RP-HPLC. The reaction mixtures were diluted in saline to an activity concentration of 250 MBq/500 μL and incubated at room temperature. The integrity of the compounds was investigated over one day (t=1 h, 4 h and 24 h, respectively). The amount of intact radioligand was quantified by integration of the product peak of the HPLC chromatograms in relation to the sum of all radioactive peaks of degradation products of unknown structure and traces of released ^64Cu which were set to 100%.
The stability of the radioligands was determined over time using RP-HPLC. […] The radiolabeling efficiency of the ligands was determined immediately after preparation (t=0 h) and the integrity of the compounds was investigated after incubation for various periods (t=1 h, 4 h and 24 h, respectively) at room temperature. The amount of intact compound was quantified by integration of the product peak of the HPLC chromatograms in relation to the sum of all radioactive peaks of degradation products of unknown structure and traces of free ^177Lu, which were set to 100%.

[7] = non-decay-corrected biodistribution data up to 192 h p.i.

`Cc1ccc(CCCC(=O)NCCCC[C@H](NC(=O)CCC(C(=O)O)N2CCN(CC(=O)O)CCN(CC(=O)O)CC2)C(=O)NC[C@H]2CC[C@H](C(=O)N[C@H](Cc3ccc4ccccc4c3)C(=O)NCCCC[C@@H](NC(=O)N[C@H](CCC(=O)O)C(=O)O)C(=O)O)CC2)cc1` (some centres unmarked) [^64Cu-PSMA-ALB-89, metal not drawn] showed a logD ([1]; n-octanol/PBS) of -2.3 ± 0.7, a cell uptake ([2]; 2 h) of ~46% and an internalized fraction ([2]; 2 h) of ~14%. The cell uptake ([2]; 4 h) was ~52%, the internalized fraction ([2]; 4 h) was ~14% and the “tumor-to-kidney ratio of accumulated radioligand (visual examination)” value [3] was > 1. The “half-maximum binding (B50), [HSA]-to-[radioligand] ratio” value (human plasma proteins) was 454 and 770, the Tu-to-muscle ([4]; 1 h p.i.) was 9.0 ± 1.13 and the Tumor-to-blood ([4]; 1 h p.i.) was 0.91 ± 0.02. It also gave a Tumor-to-kidney ([4]; 1 h p.i.) of 0.40 ± 0.02, a Tumor-to-liver ([4]; 1 h p.i.) of 3.37 ± 0.31 and a Tu-to-muscle ([4]; 4 h p.i.) of 36.3 ± 2.25. It also gave a Tumor-to-blood ([4]; 4 h p.i.) of 3.61 ± 0.30, a Tumor-to-kidney ([4]; 4 h p.i.) of 0.70 ± 0.04 and a Tumor-to-liver ([4]; 4 h p.i.) of 13.3 ± 1.20. For the same compound, the Blood ([4]; 24 h p.i.) was < 3.2 % IA/g, the “PC-3 PIP Tumor” value ([4]; 24 h p.i.) was 97.1±7.01 % IA/g and the Tu-to-muscle ([4]; 24 h p.i.) was 200±38.2. For the same compound, the Tumor-to-blood ([4]; 24 h p.i.) was 31.3 ± 3.82, the Tumor-to-kidney ([4]; 24 h p.i.) was 2.68 ± 0.36 and the Tumor-to-liver ([4]; 24 h p.i.) was 23.6 ± 3.37.
With `O=C([O-])CN1CCN(CC(=O)[O-])CCN(CC(=O)NCC2CCC(C(=O)N[C@@H](Cc3ccc4ccccc4c3)C(=O)NCCCC[C@H](NC(=O)N[C@@H](CCC(=O)O)C(=O)O)C(=O)O)CC2)CCN(CC(=O)[O-])CC1.[177Lu+3]` (some centres unmarked) [^177Lu-PSMA-617, reference compound] the “first mouse of group euthanized” value (PC-3 PIP tumor; 2 MBq/mouse (Groups B, D)) was 12 days, the median survival (PC-3 PIP tumor; 2 MBq/mouse (Groups B, D)) was 19 days and the TGDI2 (PC-3 PIP tumor; 2 MBq/mouse (Groups B, D)) was 0.8 and 0.8 ± 0.3. The TGDI5 (PC-3 PIP tumor; 2 MBq/mouse (Groups B, D)) was 1.4 and 1.4 ± 0.1, the “first mouse of group euthanized” value (PC-3 PIP tumor; 5 MBq/mouse (Groups C, E)) was 26 days and the median survival (PC-3 PIP tumor; 5 MBq/mouse (Groups C, E)) was 32 days. The TGDI2 (PC-3 PIP tumor; 5 MBq/mouse (Groups C, E)) was 2.1 ± 0.3, the TGDI5 (PC-3 PIP tumor; 5 MBq/mouse (Groups C, E)) was 2.5 ± 0.3 and the “n-octanol/PBS distribution coefficient (log D value)” value [1] was −4.4±0.15. It also gave a plasma protein-bound fraction (mouse plasma proteins) of 9.3±1.1%, a cell uptake ([2]; 4 h incubation, PC-3 PIP cells) of 58% and an internalized fraction ([2]; 4 h incubation, PC-3 PIP cells) of 12%. The “uptake in PC-3 flu cells” value [5] was “below 0.5%”, the intact compound ([6]; after 4 h, absence of L-ascorbic acid) was ~86% and the intact compound ([6]; after 24 h, absence of L-ascorbic acid) was < 2%. The intact compound ([6]; after 24 h, with L-ascorbic acid) was > 98%, the “PC-3 PIP Tumor” value ([4]; 4 h p.i.) was ~56 % IA/g and the Kidneys ([4]; 24 h p.i.) was < 1 % IA/g. The Tumor-to-blood ([4]; 24 h p.i.) was 2730 ± 195, the Tumor-to-kidney ([4]; 24 h p.i.) was 49 ± 3.7 and the Tumor-to-liver ([4]; 24 h p.i.) was 528 ± 51. For the same compound, the Tumor-to-blood ([4]; 48 h p.i.) was 3776 ± 585, the Tumor-to-kidney ([4]; 48 h p.i.) was 81 ± 11 and the Tumor-to-liver ([4]; 48 h p.i.) was 710 ± 97. For the same compound, the “PC-3 PIP Tumor” value ([4]; 192 h p.i.) was ~20 % IA/g, the “AUC PC-3 PIP tumor” value [4, 7] was 3691 ± 156 % IA/g · h and the AUC blood [4, 7] was 52 ± 1.5 % IA/g · h. For the same compound, the AUC kidneys [4, 7] was 99 ± 11 % IA/g · h, the AUC liver [4, 7] was 6.2 ± 1.6 % IA/g · h and the “Ratio of AUCs AUCTu-to-AUCBl” value ([4]; tumor to blood) was 71. For the same compound, the “Ratio of AUCs AUC-Tu-to-AUC-Ki” value ([4]; tumor to kidneys) was 37 and the “Ratio of AUCs AUCTu-to-AUCLi” value ([4]; tumor to liver) was 592.
